Test results taken from patent publication US7045528B2, “Benzofused heterozryl amide derivatives of thienopyridines useful as therapeutic agents, pharmaceutical compositions including the same, and methods for their use” (Agouron Pharmaceuticals, Inc., priority 2002, dated 2006).
Values belong to the molecule of their own block, whether it stands above or below them.

Experiments:
[1] = molecular target: T1, unphosphorylated VEGF-R2Δ50 (FLVK) (Homo sapiens, UniProt P35968, DEL940-989/E990V); assay: VEGF-R2 coupled spectrophotometric assay, unphosphorylated VEGF-R2Δ50 (FLVK); assay type: biochemical; conditions: unphosphorylated VEGF-R2Δ50; for inhibition at 0.05 µM: read-out: FLVK (% inh @ 50 nM)
T1 construct: VEGF-R2Δ50 contains residues 806–939 and 990–1171; made in house; host or cells: baculovirus/insect cell system
T1 sequence (P35968 with tags, fused parts or gaps DEL940-989/E990V limits assumed): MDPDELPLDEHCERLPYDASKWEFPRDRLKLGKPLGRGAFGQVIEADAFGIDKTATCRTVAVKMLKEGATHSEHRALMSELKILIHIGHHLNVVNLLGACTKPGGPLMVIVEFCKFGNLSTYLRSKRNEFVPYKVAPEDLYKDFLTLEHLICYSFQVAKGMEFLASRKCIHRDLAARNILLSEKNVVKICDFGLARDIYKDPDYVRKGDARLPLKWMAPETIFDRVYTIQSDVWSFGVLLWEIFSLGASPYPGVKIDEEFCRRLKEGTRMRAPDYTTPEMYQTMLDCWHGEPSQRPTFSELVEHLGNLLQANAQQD
Outline: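 Ki obtained by Morrison-equation fitting of activity at varied compound levels; reaction started with 5–40 nM enzyme. Non-autophosphorylated kinase construct (insect cell-expressed) with 3 mM ATP, 20 mM poly(E4Y1), 60 mM MgCl2 plus 2 mM MnCl2, pH 7.5 HEPES; NADH loss at 340 nm via PK/LDH coupling.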

Mouse PK assay = assay type: in vivo; conditions: 50 mg/kg, B6 female mice, plasma; for AUC / Cmax: mouse, po
Experimental: The pharmacokinetics (e.g., absorption and elimination) of drugs in mice were analyzed using the following experiment. Test compounds were formulated as a suspension in a 30:70 (PEG 400:acidified H2O) vehicle. This solution was administered orally (p.o.) and intraperitoneally (i.p.) at 50 mg/kg to two distinct groups (n=4) of B6 female mice. Blood samples were collected via an orbital bleed at time points: 0 hour (pre-dose), 0.5 hr, 1.0 hr, 2.0 hr, and 4.0 hr post dose. Plasma was obtained from each sample by centrifugation at 2500 rpm for 5 min. Test compound was extracted from the plasma by an organic protein precipitation method. For each time bleed, 50 μL of plasma was combined with 1.0 mL of acetonitrile, vortexed for 2 min. and then spun at 4000 rpm for 15 min. to precipitate the protein and extract out the test compound. Next, the acetonitrile supernatant (the extract containing test compound) was poured into new test tubes and evaporated on a hot plate (25° C.) under a steam of N2 gas. To each tube containing the dried test compound extract, 125 μL of mobile phase (60:40, 0.025 M NH4H2PO4+2.5 mL/L TEA:acetonitrile) was added. The test compound was resuspended in the mobile phase by vortexing and more protein was removed by centrifugation at 4000 rpm for 5 min. Each sample was poured into an HPLC vial for test compound analysis on an Hewlett Packard 1100 series HPLC with UV detection. From each sample, 95 μL was injected onto a Phenomenex-Prodigy reverse phase C-18, 150×3.2 mm column and eluted with a 45–50% acetonitrile gradient run over 10 min. Test-compound plasma concentrations (μg/mL) were determined by a comparison to standard curve (peak area vs. conc. μg/mL) using known concentrations of test compound extracted from plasma samples in the manner described above. Along with the standards and unknowns, three groups (n=4) of quality controls (0.25 μg/mL, 1.5 μg/mL, and 7.5 μg/mL) were run to insure the consistency of the analysis. […] The quantitated test samples were plotted for visual display using Kalidagraph software and their pharmacokinetic parameters were determined using WIN NONLIN software.

Huvec = assay: bFGF Huvec proliferation; assay type: cell-based, human
[2] = test system: human umbilical vein endothelial cells (HUVEC); assay: HUVEC+VEGF proliferation assay; assay type: cell-based; conditions: VEGF 6 ng/mL, 72 h, MTT
Outline: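 Exponentially growing passage 3–4 HUVEC were starved 24 h in F12K + 1% FBS, given compound (0.1% final DMSO) 1 h before 6 ng/mL final VEGF, then cultured 72 h. Proliferation was read as MTT dye reduction (4 h exposure), absorbance at 595 nm.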

PDGFRβ = molecular target: T2, PDGFRβ (Homo sapiens, UniProt P09619); assay: PAE-PDGFRβ phosphorylation in PAE-PDGFRB cells assay; assay type: cell-based; conditions: PAE cells overexpressing human PDGFRβ, PDGF-BB stimulated; read-out: PAE PDGFR autophos IC50 (nM) AVG
T2 construct: expressed in transfected cells; host or cells: porcine aorta endothelial (PAE)-PDGFRβ cells
T2 sequence (P09619 33-1106): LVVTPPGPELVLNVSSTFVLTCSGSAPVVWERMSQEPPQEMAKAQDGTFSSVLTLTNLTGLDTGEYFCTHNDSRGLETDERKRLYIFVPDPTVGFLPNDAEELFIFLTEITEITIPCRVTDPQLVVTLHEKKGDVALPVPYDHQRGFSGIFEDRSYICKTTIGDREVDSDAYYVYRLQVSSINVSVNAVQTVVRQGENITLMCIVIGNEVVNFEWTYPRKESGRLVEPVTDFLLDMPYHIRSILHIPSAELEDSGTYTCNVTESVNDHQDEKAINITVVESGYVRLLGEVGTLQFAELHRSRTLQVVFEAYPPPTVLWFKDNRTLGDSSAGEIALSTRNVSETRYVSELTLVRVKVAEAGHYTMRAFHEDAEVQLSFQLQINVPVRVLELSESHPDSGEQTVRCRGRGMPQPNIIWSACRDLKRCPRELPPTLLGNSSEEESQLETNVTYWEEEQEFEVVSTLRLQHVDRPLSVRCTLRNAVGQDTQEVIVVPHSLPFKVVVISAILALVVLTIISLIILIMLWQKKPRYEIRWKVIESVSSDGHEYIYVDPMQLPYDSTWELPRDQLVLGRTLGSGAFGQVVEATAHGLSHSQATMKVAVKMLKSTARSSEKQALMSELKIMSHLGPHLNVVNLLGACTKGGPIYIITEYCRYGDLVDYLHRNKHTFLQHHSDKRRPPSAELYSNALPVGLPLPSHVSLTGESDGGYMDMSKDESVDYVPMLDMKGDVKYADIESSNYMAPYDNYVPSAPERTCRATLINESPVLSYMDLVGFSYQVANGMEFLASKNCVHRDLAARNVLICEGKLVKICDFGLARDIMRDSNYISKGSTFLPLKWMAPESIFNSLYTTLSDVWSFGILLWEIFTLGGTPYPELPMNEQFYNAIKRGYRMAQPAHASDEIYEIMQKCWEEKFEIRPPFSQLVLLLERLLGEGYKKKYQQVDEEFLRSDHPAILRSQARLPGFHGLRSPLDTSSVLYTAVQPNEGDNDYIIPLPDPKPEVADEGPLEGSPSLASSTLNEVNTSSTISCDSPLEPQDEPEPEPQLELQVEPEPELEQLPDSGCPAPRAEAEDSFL
Outline: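 Inhibition of PDGF-BB-induced (1 μg/mL, 8 min, with 2 mM vanadate) PDGFRβ autophosphorylation in porcine aortic endothelial cells expressing the human receptor. Cells were starved 16 h and pretreated with compound 1 h at 37 °C. Lysates were captured with anti-PDGFRβ and probed with HRP-PY20 at 450 nm; four-parameter IC50.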

Molecule: CO[C@@H]1CCN(C(=O)c2cc3nccc(Oc4ccc5c(C(=O)NCCCO)c(C)sc5c4)c3s2)C1 [Example 124, 6-[(2-{[(3R)-3-Methoxypyrrolidin-1-yl]carbonyl}thieno[3,2-b]pyridin-7-yl)oxy]-2-methylbenzo[b]thiophene-3-carboxylic acid 3-hydroxypropylamide]
inhibition at 0.05 µM ([1]; 50 nM compound): 82%
Ki [1]: 2.19 nM
IC50 (Huvec; Homo sapiens, HUVEC): 8240 nM
IC50 (PDGFRβ): 376 nM
IC50 ([2]; Homo sapiens, HUVEC): 1.6 nM

Molecule: CNC(=O)c1c(C)sc2cc(Oc3ccnc4cc(-c5nc(CO)cs5)sc34)ccc12 [Example 128]
inhibition at 0.05 µM ([1]; 50 nM compound): 91%
Ki [1]: 0.57 nM
IC50 (Huvec; Homo sapiens, HUVEC): 100 nM
IC50 (PDGFRβ): 148 nM
IC50 ([2]; Homo sapiens, HUVEC): 0.13 nM

Molecule: Cc1sc2cc(Oc3ccnc4cc(-c5nc(CO)cs5)sc34)ccc2c1C(=O)NC1CC1 [Example 129]
inhibition at 0.05 µM ([1]; 50 nM compound): 88%
Ki [1]: 0.2 nM
IC50 (Huvec; Homo sapiens, HUVEC): 100 nM
IC50 (PDGFRβ): 168 nM
IC50 ([2]; Homo sapiens, HUVEC): 0.219 nM

Molecule: Cc1sc2cc(Oc3ccnc4cc(-c5nc(CO)cs5)sc34)ccc2c1C(=O)NCC1CC1 [Example 130]
inhibition at 0.05 µM ([1]; 50 nM compound): 95%
Ki [1]: 0.39 nM
IC50 (Huvec; Homo sapiens, HUVEC): 100 nM
IC50 (PDGFRβ): 335 nM
IC50 ([2]; Homo sapiens, HUVEC): 0.49 nM

Molecule: Cc1sc2cc(Oc3ccnc4cc(C(=O)N5CCC5)sc34)ccc2c1C(=O)NCC1CC1 [Example 131, 6-{[2-(Azetidin-1-ylcarbonyl)thieno[3,2-b]pyridin-7-yl]oxy}-2-methylbenzo[b]thiophene-3-carboxylic acid (cyclopropylmethyl)amide]
inhibition at 0.05 µM ([1]; 50 nM compound): 96%
Ki [1]: 0.2 nM
IC50 (Huvec; Homo sapiens, HUVEC): 260 nM
IC50 (PDGFRβ): 97 nM
IC50 ([2]; Homo sapiens, HUVEC): 1.89 nM

Molecule: CCc1sc2cc(Oc3ccnc4cc(C(=O)N5CC[C@@H](OC)C5)sc34)ccc2c1C(=O)NC [Example 135, 2-Ethyl-6-[(2-{[(3R)-3-methoxypyrrolidin-1-yl]carbonyl}thieno[3,2-b]pyridin-7-yl)oxy]benzo[b]thiophene-3-carboxylic acid methylamide]
inhibition at 0.05 µM ([1]; 50 nM compound): 87%
Ki [1]: 1.54 nM
IC50 (Huvec; Homo sapiens, HUVEC): 559 nM
IC50 (PDGFRβ): 212 nM
IC50 ([2]; Homo sapiens, HUVEC): 1.02 nM

Molecule: Methoxy-azetidine-1-carbonyl)-thieno[3,2-b]pyridin-7-yloxy]-2-methyl-benzofuran-3-carboxylic acid methylamide [Example 78]
FLVK (% inh @ 50 nM) ([1]; 50 nM compound): 93%
Ki [1]: 0.221 nM
IC50 (Huvec; bFGF): 30 nM
IC50 (PDGFRβ): 14.8 nM
IC50 [2]: 0.507 nM

Second part, led by results:

inhibition at 0.05 µM ([1]; 50 nM compound): 73%
Ki [1]: 1.91 nM
mouse Cmin, po (Mouse PK assay): 256 ng/mL
AUC (Mouse PK assay): 12300 ng·h/mL
Cmax (Mouse PK assay): 6740 ng/mL
Molecule: CNC(=O)c1c(C)sc2cc(Oc3ccnc4cc(C(=O)N5C[C@H](OC)[C@H](OC)C5)sc34)ccc12 [Example 5, 6-(2-[meso-3,4-dimethoxypyrrolidine-1-carbonyl]thieno[3,2-b]pyridin-7-yloxy)-2-methylbenzo[b]thiophene-3-carboxylic acid methylamide]
IC50 (Huvec; Homo sapiens, HUVEC): 235 nM
IC50 ([2]; Homo sapiens, HUVEC): 1.55 nM

inhibition at 0.05 µM ([1]; 50 nM compound): 94%
Ki [1]: 0.403 nM
mouse Cmin, po (Mouse PK assay): 105 ng/mL
AUC (Mouse PK assay): 2350 ng·h/mL
Cmax (Mouse PK assay): 666 ng/mL
Molecule: Cc1sc2cc(Oc3ccnc4cc(C(=O)N5CCC[C@H]5CO)sc34)ccc2c1C(=O)NC1CC1 [Example 8, 6-(2-[(S)-2-(hydroxymethyl)pyrrolidine-1-carbonyl]thieno[3,2-b]pyridin-7-yloxy)-2-methylbenzo[b]thiophene-3-carboxylic acid cyclopropylamide]
IC50 (Huvec; Homo sapiens, HUVEC): 504 nM
IC50 ([2]; Homo sapiens, HUVEC): 1.37 nM

inhibition at 0.05 µM ([1]; 50 nM compound): 93%
Ki [1]: 0.6 nM
IC50 (PDGFRβ): 405 nM
Molecule: COC[C@@H]1CCCN1C(=O)c1cc2nccc(Oc3ccc4c(C(=O)NC5CC5)c(C)sc4c3)c2s1 [Example 120, 6-[(2-{[(2S)-2-(Methoxymethyl)pyrrolidin-1-yl]carbonyl}thieno[3,2-b]pyridin-7-yl)oxy]-2-methylbenzo[b]thiophene-3-carboxylic acid cyclopropylamide]
IC50 (Huvec; Homo sapiens, HUVEC): 489 nM
IC50 ([2]; Homo sapiens, HUVEC): 0.491 nM

inhibition at 0.05 µM ([1]; 50 nM compound): 94%
Ki [1]: 0.2 nM
IC50 (PDGFRβ): 220 nM
Molecule: Cc1sc2cc(Oc3ccnc4cc(C(=O)N5CC[C@@H](O)C5)sc34)ccc2c1C(=O)NC1CC1 [Example 121, 6[(2-{[(3R)-3-Hydroxypyrrolidin-1-yl]carbonyl}thieno[3,2-b]pyridin-7-yl)oxy]-2-methylbenzo[b]thiophene-3-carboxylic acid cyclopropylamide]
IC50 (Huvec; Homo sapiens, HUVEC): 100 nM
IC50 ([2]; Homo sapiens, HUVEC): 0.24 nM

inhibition at 0.05 µM ([1]; 50 nM compound): 95%
Ki [1]: 0.219 nM
IC50 (PDGFRβ): 179 nM
Molecule: CO[C@@H]1CCN(C(=O)c2cc3nccc(Oc4ccc5c(C(=O)NCC6CC6)c(C)sc5c4)c3s2)C1 [Example 125, 6-[(2-{[(3R)-3-Methoxypyrrolidin-1-yl]carbonyl}thieno[3,2-b]pyridin-7-yl)oxy]-2-methylbenzo[b]thiophene-3-carboxylic acid (cyclopropylmethyl)amide]
IC50 (Huvec; Homo sapiens, HUVEC): 969 nM
IC50 ([2]; Homo sapiens, HUVEC): 2 nM

inhibition at 0.05 µM ([1]; 50 nM compound): 96%
Ki [1]: 0.59 nM
IC50 (PDGFRβ): 336 nM
Molecule: Cc1sc2cc(Oc3ccnc4cc(C(=O)N5CC[C@@H](O)C5)sc34)ccc2c1C(=O)NCC1CC1 [Example 126, 6[(2-{[(3R)-3-Hydroxypyrrolidin-1-yl]carbonyl}thieno[3,2-b]pyridin-7-yl)oxy]-2-methylbenzo[b]thiophene-3-carboxylic acid (cyclopropylmethyl)amide]
IC50 (Huvec; Homo sapiens, HUVEC): 5660 nM
IC50 ([2]; Homo sapiens, HUVEC): 10 nM

inhibition at 0.05 µM ([1]; 50 nM compound): 100%
Ki [1]: 0.2 nM
IC50 (PDGFRβ): 102 nM
Molecule: Cc1sc2cc(Oc3ccnc4cc(C(=O)N5CCC5)sc34)ccc2c1C(=O)NC1CC1 [Example 127, 6-{[2-(Azetidin-1-ylcarbonyl)thieno[3,2-b]pyridin-7-yl]oxy}2-methylbenzo[b]thiophene-3-carboxylic acid cyclopropylamide]
IC50 (Huvec; Homo sapiens, HUVEC): 41 nM
IC50 ([2]; Homo sapiens, HUVEC): 1 nM

inhibition at 0.05 µM ([1]; 50 nM compound): 94%
Ki [1]: 1.44 nM
IC50 (PDGFRβ): 177 nM
Molecule: CCc1sc2cc(Oc3ccnc4cc(-c5nccn5C)sc34)ccc2c1C(=O)NC [Example 134, 2-Ethyl 6-{[2-(1-methyl-1H-imidazol-2-yl)thieno[3,2-b]pyridin-7-yl]oxy}benzo[b]thiophene-3-carboxylic acid methylamide]
IC50 (Huvec; Homo sapiens, HUVEC): 1070 nM
IC50 ([2]; Homo sapiens, HUVEC): 0.656 nM

inhibition at 0.05 µM ([1]; 50 nM compound): 64%
Ki [1]: 5.1 nM
IC50 (PDGFRβ): 213 nM
Molecule: CCc1sc2cc(Oc3ccnc4cc(C(=O)N5CCC[C@H]5COC)sc34)ccc2c1C(=O)NC [Example 137, 2-Ethyl-6-[(2-{[(2S)-2-(methoxymethyl)pyrrolidin-1-yl]carbonyl}thieno[3,2-b]pyridin-7-yl)oxy]benzo[b]thiophene-3-carboxylic acid methylamide]
IC50 (Huvec; Homo sapiens, HUVEC): 294 nM
IC50 ([2]; Homo sapiens, HUVEC): 2.1 nM
